Measured values reported in the supplement of paper PMC11208160.

Assay: recombinant barcode read abundance after kanamycin selection (control-corrected) (log10(CPM+1)); higher = more efficient recombination; sequences stand for … in AGTGCAGAGAAAATCGGCCAGTTTTCTCTGCCTGCAGTCCGCATGCCGT…ATTTATGCAGCGGACTGCCTTTCTCCCAAAGTGATAAACCGGACAGTATCATGGACCGGTTTTCCCGGTAATCCGTATTTGCAAGGTTGGTTTCACT; site = the 11-nt target
Experimental: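 Same pooled E. coli target screen (IS621 bridge recombinase, kanamycin selection, control-corrected CPM, mean of 2 biological replicates). Here the two core-binding nucleotides of the LTG and RTG of the bridge RNA target-binding loop are mutated. Target and donor CT cores are held constant, and the other 9 guide positions match the target. The target is read from the library oligo sequence. Molecule = full bridge RNA written as DNA: nt 1-80 from the library oligo, rest WT scaffold.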

ATGCTTTGATGGGTTCTAACCTGTTGCCTTC [ATGCTTTCTAG_LTGcore_GA_RTGcore_GA] (site ATGCTTTCTAG) (LTG core: GA, RTG core: GA)
recombinant barcode read abundance (log10): 0.0368

ATGCTTTGCTGGGTTCTAACCTGTTGCCTGC [ATGCTTTCTAG_LTGcore_GC_RTGcore_GC] (site ATGCTTTCTAG) (LTG core: GC, RTG core: GC)
recombinant barcode read abundance (log10): 0.0848

ATGCTTTTATGGGTTCTAACCTGTTGCCTAG [ATGCTTTCTAG_LTGcore_TA_RTGcore_CT] (site ATGCTTTCTAG) (LTG core: TA, RTG core: CT)
recombinant barcode read abundance (log10): 0.238

ATGCTTTTATGGGTTCTAACCTGTTGCCTTA [ATGCTTTCTAG_LTGcore_TA_RTGcore_TA] (site ATGCTTTCTAG) (LTG core: TA, RTG core: TA)
recombinant barcode read abundance (log10): 0.232

ATGCTTTTGTGGGTTCTAACCTGTTGCCTAG [ATGCTTTCTAG_LTGcore_TG_RTGcore_CT] (site ATGCTTTCTAG) (LTG core: TG, RTG core: CT)
recombinant barcode read abundance (log10): 0.0287

ATGCTTTTTTGGGTTCTAACCTGTTGCCTAA [ATGCTTTCTAG_LTGcore_TT_RTGcore_TT] (site ATGCTTTCTAG) (LTG core: TT, RTG core: TT)
recombinant barcode read abundance (log10): 0.0151

ATGTCCCAGTGGGTTCTAACCTGTTGCTCCT [ATGTCCCCTGA_LTGcore_AG_RTGcore_AG] (site ATGTCCCCTGA) (LTG core: AG, RTG core: AG)
recombinant barcode read abundance (log10): 0.0318

ATGTCCCCGTGGGTTCTAACCTGTTGCTCCG [ATGTCCCCTGA_LTGcore_CG_RTGcore_CG] (site ATGTCCCCTGA) (LTG core: CG, RTG core: CG)
recombinant barcode read abundance (log10): 0.163

ATGTCCCCTTGGGTTCTAACCTGTTGCTCAC [ATGTCCCCTGA_LTGcore_CT_RTGcore_GT] (site ATGTCCCCTGA) (LTG core: CT, RTG core: GT)
recombinant barcode read abundance (log10): 0.0456

ATGTCCCCTTGGGTTCTAACCTGTTGCTCCA [ATGTCCCCTGA_LTGcore_CT_RTGcore_TG] (site ATGTCCCCTGA) (LTG core: CT, RTG core: TG)
recombinant barcode read abundance (log10): 0.0151

ATGTCCCCTTGGGTTCTAACCTGTTGCTCCT [ATGTCCCCTGA_LTGcore_CT_RTGcore_AG] (site ATGTCCCCTGA) (LTG core: CT, RTG core: AG)
recombinant barcode read abundance (log10): 0.205

ATGTCCCCTTGGGTTCTAACCTGTTGCTCTG [ATGTCCCCTGA_LTGcore_CT_RTGcore_CA] (site ATGTCCCCTGA) (LTG core: CT, RTG core: CA)
recombinant barcode read abundance (log10): 0.00868

ATGTCCCGCTGGGTTCTAACCTGTTGCTCAG [ATGTCCCCTGA_LTGcore_GC_RTGcore_CT] (site ATGTCCCCTGA) (LTG core: GC, RTG core: CT)
recombinant barcode read abundance (log10): 0

ATGTCCCGGTGGGTTCTAACCTGTTGCTCCC [ATGTCCCCTGA_LTGcore_GG_RTGcore_GG] (site ATGTCCCCTGA) (LTG core: GG, RTG core: GG)
recombinant barcode read abundance (log10): 0.109

CATATTAAATGGGTTCTAACCTGTTGCCTTT [CATATTACTAG_LTGcore_AA_RTGcore_AA] (site CATATTACTAG) (LTG core: AA, RTG core: AA)
recombinant barcode read abundance (log10): 1.4

CATATTAACTGGGTTCTAACCTGTTGCCTGT [CATATTACTAG_LTGcore_AC_RTGcore_AC] (site CATATTACTAG) (LTG core: AC, RTG core: AC)
recombinant barcode read abundance (log10): 0.119

CATATTAAGTGGGTTCTAACCTGTTGCCTAG [CATATTACTAG_LTGcore_AG_RTGcore_CT] (site CATATTACTAG) (LTG core: AG, RTG core: CT)
recombinant barcode read abundance (log10): 0.0215

CATATTAATTGGGTTCTAACCTGTTGCCTAT [CATATTACTAG_LTGcore_AT_RTGcore_AT] (site CATATTACTAG) (LTG core: AT, RTG core: AT)
recombinant barcode read abundance (log10): 0.0885

CATATTACCTGGGTTCTAACCTGTTGCCTGG [CATATTACTAG_LTGcore_CC_RTGcore_CC] (site CATATTACTAG) (LTG core: CC, RTG core: CC)
recombinant barcode read abundance (log10): 0.638

CATATTACGTGGGTTCTAACCTGTTGCCTCG [CATATTACTAG_LTGcore_CG_RTGcore_CG] (site CATATTACTAG) (LTG core: CG, RTG core: CG)
recombinant barcode read abundance (log10): 0.443

CATATTACTTGGGTTCTAACCTGTTGCCTCG [CATATTACTAG_LTGcore_CT_RTGcore_CG] (site CATATTACTAG) (LTG core: CT, RTG core: CG)
recombinant barcode read abundance (log10): 0.0475

CATATTACTTGGGTTCTAACCTGTTGCCTGA [CATATTACTAG_LTGcore_CT_RTGcore_TC] (site CATATTACTAG) (LTG core: CT, RTG core: TC)
recombinant barcode read abundance (log10): 0.138

CATATTACTTGGGTTCTAACCTGTTGCCTGG [CATATTACTAG_LTGcore_CT_RTGcore_CC] (site CATATTACTAG) (LTG core: CT, RTG core: CC)
recombinant barcode read abundance (log10): 0.0433

CATATTATGTGGGTTCTAACCTGTTGCCTAG [CATATTACTAG_LTGcore_TG_RTGcore_CT] (site CATATTACTAG) (LTG core: TG, RTG core: CT)
recombinant barcode read abundance (log10): 0.0521

CGAGCCCAATGGGTTCTAACCTGTTGCTGAG [CGAGCCCCTCA_LTGcore_AA_RTGcore_CT] (site CGAGCCCCTCA) (LTG core: AA, RTG core: CT)
recombinant barcode read abundance (log10): 0.0167

CGAGCCCACTGGGTTCTAACCTGTTGCTGAG [CGAGCCCCTCA_LTGcore_AC_RTGcore_CT] (site CGAGCCCCTCA) (LTG core: AC, RTG core: CT)
recombinant barcode read abundance (log10): 0.0532

CGAGCCCAGTGGGTTCTAACCTGTTGCTGAG [CGAGCCCCTCA_LTGcore_AG_RTGcore_CT] (site CGAGCCCCTCA) (LTG core: AG, RTG core: CT)
recombinant barcode read abundance (log10): 0.139

CGAGCCCATTGGGTTCTAACCTGTTGCTGAT [CGAGCCCCTCA_LTGcore_AT_RTGcore_AT] (site CGAGCCCCTCA) (LTG core: AT, RTG core: AT)
recombinant barcode read abundance (log10): 0.0704

CGAGCCCCCTGGGTTCTAACCTGTTGCTGAG [CGAGCCCCTCA_LTGcore_CC_RTGcore_CT] (site CGAGCCCCTCA) (LTG core: CC, RTG core: CT)
recombinant barcode read abundance (log10): 0.805

CGAGCCCCTTGGGTTCTAACCTGTTGCTGAG [CGAGCCCCTCA_LTGcore_CT_RTGcore_CT] (site CGAGCCCCTCA) (LTG core: CT, RTG core: CT)
recombinant barcode read abundance (log10): 2.65

CGAGCCCCTTGGGTTCTAACCTGTTGCTGGG [CGAGCCCCTCA_LTGcore_CT_RTGcore_CC] (site CGAGCCCCTCA) (LTG core: CT, RTG core: CC)
recombinant barcode read abundance (log10): 0.164

CGAGCCCCTTGGGTTCTAACCTGTTGCTGTC [CGAGCCCCTCA_LTGcore_CT_RTGcore_GA] (site CGAGCCCCTCA) (LTG core: CT, RTG core: GA)
recombinant barcode read abundance (log10): 0.248

CGAGCCCCTTGGGTTCTAACCTGTTGCTGTT [CGAGCCCCTCA_LTGcore_CT_RTGcore_AA] (site CGAGCCCCTCA) (LTG core: CT, RTG core: AA)
recombinant barcode read abundance (log10): 0.266

CGAGCCCGATGGGTTCTAACCTGTTGCTGTC [CGAGCCCCTCA_LTGcore_GA_RTGcore_GA] (site CGAGCCCCTCA) (LTG core: GA, RTG core: GA)
recombinant barcode read abundance (log10): 0.188
